Where a SMILES comes first, the peptide text is derived from it. Bridges are numbered along the chain shown (N, C = ends).
experiment: Determination of the protein binding (90% serum, 30 kDa filter, HPLC); format: in vitro ADME; details: serum
Procedure: Protein binding assays were performed as follows. The purified peptides were mixed with 90% serum and centrifuged through a 30 kDa filter. The ultra-filtrate and the non filtrated serum samples were quantified by HPLC measurements and the protein binding was subsequently calculated.

SMILES | fraction unbound
CC(C)[C@@H]1NC(=O)CNC(=O)[C@H](CC(N)=O)NC(=O)[C@H](CCCNC(=N)N)NC(=O)[C@H](Cc2ccc(O)cc2)NC(=O)[C@H](C(C)C)NC(=O)[C@@H]2CSSC[C@H](NC(=O)[C@H](C(C)C)NC(=O)[C@H](CCCNC(=N)N)NC1=O)C(=O)N[C@@H](Cc1ccc(O)cc1)C(=O)N[C@@H](CCCNC(=N)N)C(=O)N[C@@H](CCCNC(=N)N)C(=O)N[C@H](C(=O)N[C@@H](CC(N)=O)C(=O)O)CSSC[C@H](NC(=O)[C@H](C)NC(=O)CN)C(=O)N[C@@H](Cc1c[nH]c3ccccc13)C(=O)N[C@@H](Cc1ccc(O)cc1)C(=O)N[C@@H](C(C)C)C(=O)N2 [compound 3] (H-GACWYVCVYRNGVRVCYRRCN-OH; disulfide 3-20, 7-16 (inferred); N-terminus and C-terminus assumed) | 0.14
CC(C)[C@@H]1NC(=O)CNC(=O)[C@H](CC(N)=O)NC(=O)[C@H](CCCNC(=N)N)NC(=O)[C@H](Cc2ccc(O)cc2)NC(=O)[C@H](C(C)C)NC(=O)[C@@H]2CSSC[C@H](NC(=O)[C@H](C(C)C)NC(=O)[C@H](CCCNC(=N)N)NC1=O)C(=O)N[C@@H](Cc1ccc(O)cc1)C(=O)N[C@@H](CCCNC(=N)N)C(=O)N[C@@H](CCCNC(=N)N)C(=O)N[C@H](C(=O)N[C@@H](CC(N)=O)C(=O)O)CSSC[C@H](NC(=O)[C@H](Cc1ccccc1)NC(=O)CN)C(=O)N[C@@H](C)C(=O)N[C@@H](Cc1ccc(O)cc1)C(=O)N[C@@H](C(C)C)C(=O)N2 [compound 4] (H-GFCAYVCVYRNGVRVCYRRCN-OH; disulfide 3-20, 7-16 (inferred); N-terminus and C-terminus assumed) | 0.11
CC(C)[C@@H]1NC(=O)CNC(=O)[C@H](CC(N)=O)NC(=O)[C@H](CCCNC(=N)N)NC(=O)[C@H](Cc2ccc(O)cc2)NC(=O)[C@H](C(C)C)NC(=O)[C@@H]2CSSC[C@H](NC(=O)[C@H](C(C)C)NC(=O)[C@H](CCCNC(=N)N)NC1=O)C(=O)N[C@@H](Cc1ccc(O)cc1)C(=O)N[C@@H](CCCNC(=N)N)C(=O)N[C@@H](CCCNC(=N)N)C(=O)N[C@H](C(=O)N[C@@H](CC(N)=O)C(=O)O)CSSC[C@H](NC(=O)[C@H](Cc1ccccc1)NC(=O)CN)C(=O)N[C@@H](CO)C(=O)N[C@@H](Cc1ccc(O)cc1)C(=O)N[C@@H](C(C)C)C(=O)N2 [compound 7] (H-GFCSYVCVYRNGVRVCYRRCN-OH; disulfide 3-20, 7-16 (inferred); N-terminus and C-terminus assumed) | 0.32
CC(C)[C@@H]1NC(=O)CNC(=O)[C@H](CC(N)=O)NC(=O)[C@H](CCCNC(=N)N)NC(=O)[C@H](Cc2ccc(O)cc2)NC(=O)[C@H](C(C)C)NC(=O)[C@@H]2CSSC[C@H](NC(=O)[C@H](C(C)C)NC(=O)[C@H](CCCNC(=N)N)NC1=O)C(=O)N[C@@H](Cc1ccc(O)cc1)C(=O)N[C@@H](CCCNC(=N)N)C(=O)N[C@@H](CCCNC(=N)N)C(=O)N[C@H](C(=O)N[C@@H](CC(N)=O)C(=O)O)CSSC[C@H](NC(=O)[C@H](Cc1ccccc1)NC(=O)CN)C(=O)N[C@@H](Cc1c[nH]c3ccccc13)C(=O)N[C@@H](CCCCN)C(=O)N[C@@H](C(C)C)C(=O)N2 [compound 10] (H-GFCWKVCVYRNGVRVCYRRCN-OH; disulfide 3-20, 7-16 (inferred); N-terminus and C-terminus assumed) | 0.36
CC(C)[C@@H]1NC(=O)CNC(=O)[C@H](CC(N)=O)NC(=O)[C@H](CCCNC(=N)N)NC(=O)[C@H](Cc2ccc(O)cc2)NC(=O)[C@H](C(C)C)NC(=O)[C@@H]2CSSC[C@H](NC(=O)[C@H](C(C)C)NC(=O)[C@H](CCCNC(=N)N)NC1=O)C(=O)N[C@@H](Cc1ccc(O)cc1)C(=O)N[C@@H](CCCNC(=N)N)C(=O)N[C@@H](CCCNC(=N)N)C(=O)N[C@H](C(=O)N[C@@H](CC(N)=O)C(=O)O)CSSC[C@H](NC(=O)[C@H](Cc1ccccc1)NC(=O)CN)C(=O)N[C@@H](Cc1c[nH]c3ccccc13)C(=O)N[C@@H](CC(N)=O)C(=O)N[C@@H](C(C)C)C(=O)N2 [compound 11] (H-GFCWNVCVYRNGVRVCYRRCN-OH; disulfide 3-20, 7-16 (inferred); N-terminus and C-terminus assumed) | 0.27
CC(C)[C@@H]1NC(=O)CNC(=O)[C@H](CC(N)=O)NC(=O)[C@H](CCCNC(=N)N)NC(=O)[C@H](Cc2ccc(O)cc2)NC(=O)[C@H](C(C)C)NC(=O)[C@@H]2CSSC[C@H](NC(=O)[C@H](C(C)C)NC(=O)[C@H](CCCNC(=N)N)NC1=O)C(=O)N[C@@H](Cc1ccc(O)cc1)C(=O)N[C@@H](CCCNC(=N)N)C(=O)N[C@@H](CCCNC(=N)N)C(=O)N[C@H](C(=O)N[C@@H](CC(N)=O)C(=O)O)CSSC[C@H](NC(=O)[C@H](Cc1ccccc1)NC(=O)CN)C(=O)N[C@@H](Cc1c[nH]c3ccccc13)C(=O)N[C@@H](Cc1ccc(O)cc1)C(=O)NCC(=O)N2 [compound 15] (H-GFCWYGCVYRNGVRVCYRRCN-OH; disulfide 3-20, 7-16 (inferred); N-terminus and C-terminus assumed) | 0.04
CC(C)[C@@H]1NC(=O)CNC(=O)[C@H](CC(N)=O)NC(=O)[C@H](CCCNC(=N)N)NC(=O)[C@H](Cc2ccc(O)cc2)NC(=O)[C@H](C(C)C)NC(=O)[C@@H]2CSSC[C@H](NC(=O)[C@H](C(C)C)NC(=O)[C@H](CCCNC(=N)N)NC1=O)C(=O)N[C@@H](Cc1ccc(O)cc1)C(=O)N[C@@H](CCCNC(=N)N)C(=O)N[C@@H](CCCNC(=N)N)C(=O)N[C@H](C(=O)N[C@@H](CC(N)=O)C(=O)O)CSSC[C@H](NC(=O)[C@H](Cc1ccccc1)NC(=O)CN)C(=O)N[C@@H](Cc1c[nH]c3ccccc13)C(=O)N[C@@H](Cc1ccc(O)cc1)C(=O)N[C@@H](CO)C(=O)N2 [compound 19] (H-GFCWYSCVYRNGVRVCYRRCN-OH; disulfide 3-20, 7-16 (inferred); N-terminus and C-terminus assumed) | 0.11
CC(C)[C@@H]1NC(=O)CNC(=O)[C@H](CC(N)=O)NC(=O)[C@H](CCCNC(=N)N)NC(=O)[C@H](Cc2ccc(O)cc2)NC(=O)[C@H](C(C)C)NC(=O)[C@@H]2CSSC[C@H](NC(=O)[C@H](C(C)C)NC(=O)[C@H](CCCNC(=N)N)NC1=O)C(=O)N[C@@H](Cc1ccc(O)cc1)C(=O)N[C@@H](CCCNC(=N)N)C(=O)N[C@@H](CCCNC(=N)N)C(=O)N[C@H](C(=O)N[C@@H](CC(N)=O)C(=O)O)CSSC[C@H](NC(=O)[C@H](Cc1ccccc1)NC(=O)CN)C(=O)N[C@@H](Cc1c[nH]c3ccccc13)C(=O)N[C@@H](Cc1ccc(O)cc1)C(=O)N[C@@H](Cc1c[nH]c3ccccc13)C(=O)N2 [compound 20] (H-GFCWYWCVYRNGVRVCYRRCN-OH; disulfide 3-20, 7-16 (inferred); N-terminus and C-terminus assumed) | 0.01
CC(C)[C@@H]1NC(=O)CNC(=O)[C@H](CC(N)=O)NC(=O)[C@H](CCCNC(=N)N)NC(=O)[C@H](Cc2ccc(O)cc2)NC(=O)[C@H](C)NC(=O)[C@@H]2CSSC[C@H](NC(=O)[C@H](C(C)C)NC(=O)[C@H](CCCNC(=N)N)NC1=O)C(=O)N[C@@H](Cc1ccc(O)cc1)C(=O)N[C@@H](CCCNC(=N)N)C(=O)N[C@@H](CCCNC(=N)N)C(=O)N[C@H](C(=O)N[C@@H](CC(N)=O)C(=O)O)CSSC[C@H](NC(=O)[C@H](Cc1ccccc1)NC(=O)CN)C(=O)N[C@@H](Cc1c[nH]c3ccccc13)C(=O)N[C@@H](Cc1ccc(O)cc1)C(=O)N[C@@H](C(C)C)C(=O)N2 [compound 21] (H-GFCWYVCAYRNGVRVCYRRCN-OH; disulfide 3-20, 7-16 (inferred); N-terminus and C-terminus assumed) | 0.015
CC(C)[C@@H]1NC(=O)CNC(=O)[C@H](CC(N)=O)NC(=O)[C@H](CCCNC(=N)N)NC(=O)[C@H](Cc2ccc(O)cc2)NC(=O)[C@H](Cc2c[nH]cn2)NC(=O)[C@@H]2CSSC[C@H](NC(=O)[C@H](C(C)C)NC(=O)[C@H](CCCNC(=N)N)NC1=O)C(=O)N[C@@H](Cc1ccc(O)cc1)C(=O)N[C@@H](CCCNC(=N)N)C(=O)N[C@@H](CCCNC(=N)N)C(=O)N[C@H](C(=O)N[C@@H](CC(N)=O)C(=O)O)CSSC[C@H](NC(=O)[C@H](Cc1ccccc1)NC(=O)CN)C(=O)N[C@@H](Cc1c[nH]c3ccccc13)C(=O)N[C@@H](Cc1ccc(O)cc1)C(=O)N[C@@H](C(C)C)C(=O)N2 [compound 23] (H-GFCWYVCHYRNGVRVCYRRCN-OH; disulfide 3-20, 7-16 (inferred); N-terminus and C-terminus assumed) | 0.02
CC(C)[C@@H]1NC(=O)CNC(=O)[C@H](CC(N)=O)NC(=O)[C@H](CCCNC(=N)N)NC(=O)[C@H](Cc2ccc(O)cc2)NC(=O)[C@H](CO)NC(=O)[C@@H]2CSSC[C@H](NC(=O)[C@H](C(C)C)NC(=O)[C@H](CCCNC(=N)N)NC1=O)C(=O)N[C@@H](Cc1ccc(O)cc1)C(=O)N[C@@H](CCCNC(=N)N)C(=O)N[C@@H](CCCNC(=N)N)C(=O)N[C@H](C(=O)N[C@@H](CC(N)=O)C(=O)O)CSSC[C@H](NC(=O)[C@H](Cc1ccccc1)NC(=O)CN)C(=O)N[C@@H](Cc1c[nH]c3ccccc13)C(=O)N[C@@H](Cc1ccc(O)cc1)C(=O)N[C@@H](C(C)C)C(=O)N2 [compound 24] (H-GFCWYVCSYRNGVRVCYRRCN-OH; disulfide 3-20, 7-16) | 0.15
CC(C)[C@@H]1NC(=O)CNC(=O)[C@H](CC(N)=O)NC(=O)[C@H](CCCNC(=N)N)NC(=O)[C@H](Cc2ccc(O)cc2)NC(=O)[C@H](Cc2ccc(O)cc2)NC(=O)[C@@H]2CSSC[C@H](NC(=O)[C@H](C(C)C)NC(=O)[C@H](CCCNC(=N)N)NC1=O)C(=O)N[C@@H](Cc1ccc(O)cc1)C(=O)N[C@@H](CCCNC(=N)N)C(=O)N[C@@H](CCCNC(=N)N)C(=O)N[C@H](C(=O)N[C@@H](CC(N)=O)C(=O)O)CSSC[C@H](NC(=O)[C@H](Cc1ccccc1)NC(=O)CN)C(=O)N[C@@H](Cc1c[nH]c3ccccc13)C(=O)N[C@@H](Cc1ccc(O)cc1)C(=O)N[C@@H](C(C)C)C(=O)N2 [compound 25] (H-GFCWYVCYYRNGVRVCYRRCN-OH; disulfide 3-20, 7-16 (inferred); N-terminus and C-terminus assumed) | 0.02

— patent US20160158317A1, “Antimicrobial Peptide Variants and Polynucleotides Encoding Same” (Adenium Biotech A/S, priority 2010, published 2016)
